Patent publication US11419878B2, “Medicine obtained by combining FXR agonist and ARB” (Intercept Pharmaceuticals, Inc., priority 2016, dated 2022)

Legend:
[1] = system: human hepatic stellate cells (HHSC); assay: HHSC proliferation inhibition, WST-1 cell proliferation assay; format: cell-based; details: AT-II 10^-6M + LPS 10^-5M; ARB 10^-6M, obeticholic acid 5×10^-6M; 24 hours; WST-1 absorbance
Experimental: The various combined effects of obeticholic acid and three types of ARBs (losartan, valsartan, and candesartan) were confirmed in an in vitro cell system experiment. Specifically, using human hepatic stellate cells (HHSC), which are implicated in the main mechanism of progression of hepatic fibrosis in NASH, the effects of administration of obeticholic acid in combination with the three ARBs of inhibiting HHSC proliferation capacity and the expression of fibrosis markers were evaluated according to the following method. Human hepatic stellate cells (HHSC) (also referred to as human hepatic star cells) Obeticholic acid (obtained from Intercept Pharmaceuticals, Inc. via Sumitomo Dainippon Pharma Co., Ltd.) was used as an FXR agonist, and commercial losartan (potassium salt of losartan; referred to in this working example simply as “losartan”) and valsartan and candesartan ([…] of candesartan; referred to in this working example simply as “candesartan”) were used as ARBs. […] The direct action of inhibiting HIISC proliferation capacity was evaluated by means of a cell proliferation assay using WST-1 reagent. […] AT-II (10^-6M) Positive control group L […]): LPS 10^-5M) Positive control group AL ([…]): (10^-6M)+LPS (10^-5M) Obeticholic acid administration (G3): AT-II (10^-6M)+LPS (10^-5M)+obeticholic acid (5×10^-6M) ARB administration (G4): AT-II (10^-6M)+LPS (10^-5M)+ARB (10^-6M) Obeticholic acid+ARB combined administration (G5): AT-II (10^-6M)+LPS (10^-5M)+obeticholic acid (5×10^-6M)+ARB (10^-6M) 3) After the cells of the above groups (G1, G2A, G2L, G2AL, G3, G4, G5) were cultured for 24 hours, respective WST-1 cell proliferation assays were conducted, and the inhibitory effect of the pharmaceutical agents on cell proliferation was evaluated. The inhibitory effect of valsartan and candesartan on HHSC proliferation was also evaluated according to steps 1)-3) above. […]

[2] = system: C57Bl/6J mice fed a CDAHFD; assay: Murine NASH model (CDAHFD-fed mice), serum ALT activity; format: in vivo, mouse; details: obeticholic acid 10 mg/kg/day and/or losartan 30 mg/kg/day oral, 3 weeks from 6 weeks of diet
From the text: According to the NASH/NAFLD Practice Guideline of 2015 (Japan Society of Hepatology, NASH/NAFLD Practice Guideline 2015. Tokyo: Bunkodo; 2015.), the important factors in NASH diagnostic screening are an abdominal ultrasound diagnosis of fatty liver and abnormal ALT (alanine aminotransferase) values. The diagnosis of NASH is confirmed by liver biopsy, with control of obesity/hypertension/lipid abnormalities being one of the basic criteria, and continuing high values for transaminases (aminotransferases) are also significant. […] Aliment Pharmacol Ther. 2013 Jul. 38 (2): 134-43). Based on the above findings, as ALT is considered an important prognostic factor in the progression of NASH, treatment to improve ALT levels is expected to alleviate the pathology of NASH. For this reason, evaluation was conducted using the animal model of reduction of ALT below, and the effects of monotherapy and combined administration of an FXR agonist (obeticholic acid) and an ARB (losartan) were studied.
The same method was used as in working example 7.
Male C57Bl/6J mice (n=50) […]
In order to evaluate serum alanine aminotransferase (ALT) activity, blood samples were taken from mice that had completed the above-mentioned testing, and the serum was separated. Using a pharmaceutical product for in vitro diagnosis, ALT activity in the serum samples was enzymatically measured.

FXR = target: T1, FXR (Homo sapiens, UniProt Q96RI1); details: background statement; cited from earlier work
T1 sequence (Q96RI1 1-486): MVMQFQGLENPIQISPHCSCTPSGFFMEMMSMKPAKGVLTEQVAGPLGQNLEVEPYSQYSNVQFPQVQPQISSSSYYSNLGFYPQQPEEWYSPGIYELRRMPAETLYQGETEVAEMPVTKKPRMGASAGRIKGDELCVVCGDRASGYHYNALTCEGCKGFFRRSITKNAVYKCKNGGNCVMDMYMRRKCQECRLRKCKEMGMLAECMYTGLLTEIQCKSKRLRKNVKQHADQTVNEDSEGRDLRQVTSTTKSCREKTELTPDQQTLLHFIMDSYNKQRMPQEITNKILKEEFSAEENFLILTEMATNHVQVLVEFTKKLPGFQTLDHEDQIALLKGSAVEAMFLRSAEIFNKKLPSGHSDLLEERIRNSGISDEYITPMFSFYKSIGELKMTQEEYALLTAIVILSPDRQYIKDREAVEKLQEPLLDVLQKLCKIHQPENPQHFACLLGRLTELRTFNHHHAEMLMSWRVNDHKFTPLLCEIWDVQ

## CCCCc1nc(Cl)c(CO)n1Cc1ccc(-c2ccccc2-c2nn[nH]n2)cc1 [losartan]
[1]
  promotion of activated HHSC proliferation by AT-II and LPS, compared to positive control group AL (G2AL): statistically significant inhibition
[2]
  improvement in serum ALT activity versus the positive control group: only an improving trend

## CC[C@H]1[C@@H](O)[C@@H]2[C@H](CC[C@]3(C)[C@@H]([C@H](C)CCC(=O)O)CC[C@@H]23)[C@@]2(C)CC[C@@H](O)C[C@@H]12 [obeticholic acid, 3α,7α-dihydroxy-6α-ethyl-5β-cholan-24-oic acid]
FXR
  FXR agonist action / FXR-stimulating action: strongest FXR-stimulating action among the semi synthetic alkylated bile acids
[2]
  improvement in serum ALT activity versus the positive control group: only an improving trend
